Literature values, collected in patent publication US20130317107A1, “Platelet-Based Methods to Detect and Monitor Treatment Benefits in Mucosal and Nervous Systems Diseases” (priority 2012, published 2013).

Legend:
[1] = test system: collagen-stimulated platelets
[2] = test system: human bronchial epithelial cells
[3] = test system: p38 MAP kinase; settings: human bronchial epithelial cells
[4] = test system: dogs; settings: administered intravenously in dogs
[5] = relative to the stable cysteine disulfide
[6] = test system: interluekin-1 beta (IL-1β)-induced eotaxin and monocyte chemotactic protein-1 (MCP-1) expression; settings: by inhibiting activation of p38 MAP kinase
[7] = relative to cysteine

Structure (SMILES)	CD40L release [1]	DEP-induced IL-8 and RANTES production [2]	DEP-induced p38 MAP kinase activity [3]	protection against pulmonary oxygen toxicity and ischemic and reperfusion damage [4]	solubility compared with cystine [5]	IL-1β-induced eotaxin and MCP-1 expression and production [6]	stability compared with cysteine [7]
CC(=O)Oc1ccccc1C(=O)O [Aspirin]	only partially inhibit						
CC(=O)N[C@@H](CS)C(=O)O [N-acetylcysteine]		inhibited	inhibit	protect	much more soluble	inhibit	about 10 times
